# Laboratory results: patent USRE48267E1, “Variants of C-type natriuretic peptide” (priority 2009, dated 2020)
# Where a SMILES comes first, the peptide text is derived from it. Bridges are numbered along the chain shown (N, C = ends). The star is where a group is joined. MeO(CH2CH2O)23CH2CH2CO = COCCOCCOCCOCCOCCOCCOCCOCCOCCOCCOCCOCCOCCOCCOCCOCCOCCOCCOCCOCCOCCOCCOCCOCCC(=O)*
# Tested on: FGFR3^ach mouse femurs and tibias
# Test: mouse organ culture model of endochondral bone growth, FGFR3^ach bones
# Protocol: To determine the efficacy of CNP variants in stimulating longitudinal bone growth, CNP variants were tested in a mouse organ culture model of endochondral bone growth in wild-type mice and transgenic mice having a G380R mutation in the human FGFR-3 gene (FGFR3^wt/Ach heterozygote) which represent a mouse model of mild achondroplasia. In brief, the pharmacological activity of wild-type CNP22 and CNP variants was compared in an organ culture model of embryonic or neonatal mouse tibiae, isolated from wild-type and FGFR3^wt/Ach littermates. Overall bone growth and histological changes within the growth plate were assessed. Conditioned culture medium is also assessed for biomarkers of intracellular signaling (cGMP), cartilage metabolism (type II collagen, other collagens, aggrecan chondroitin sulfate), bone metabolism (bone alkaline phosphatase, osteocalcin, type I collagen [C-telopeptide, N-telopeptide]), and inflammation (interleukin-1, interleukin 6, interleukin-11).
# The efficacy of wtCNP22, CNP37 and PEO24-[…]22(K4R) (SEQ ID NO: 36) in stimulating longitudinal femoral growth was evaluated in the mouse organ culture model. For these experiments femora were isolated from 2-3 day old wild-type mice and cultured in alphaMEM supplemented with 0.2% BSA, 0.5 mM L-glutamine, 40 units penicillin/mL and 40 ug streptomycin/mL, for 8 days in the presence of vehicle, CNP22 or CNP variants. The treatment commenced at day 0 and was repeated every two days thereafter, as the medium was changed. Bones were measured prior to treatment and every two days thereafter, using a dissection microscope fitted with a 1 cm eye-piece reticule. Conditioned medium was used for biomarker analysis. At day 8 bones were fixed in 4% paraformaldehyde for 24 hr, decalcified in 5% formic acid for 24 hrs, dehydrated and embedded in paraffin. Bones were sectioned at 5 um (microns), which were then deparaffinized, rehydrated, and stained with Alcian Blue for 30 min (pH 2.5; MasterTech). Alcian Blue stains cartilage blue. Stained sections were visualized and photographed by brightfield microscopy. The thickness of the hypertrophic region of the growth plate cartilage was determined by image analysis.
# Furthermore, ex vivo distribution of CNP37 in the growth plate of FGFR3^ach mouse tibia was evaluated. Bone samples were prepared as described above. Paraffin sections were cut and heat fixed for 1 hour at 60° C. Antigen retrieval with 1% hyaluronidase at 37° C. (30 minutes) was followed by a 1 hour serum block (10% Normal Goat Serum). […]
# In addition to the distribution of CNP variants in the bone growth plate, the ex vivo effects of CNP37, CNP22 and vehicle on cells in the FGFR3^ach and wild-type growth plate, e.g., hypertrophic cell size and cellularity of proliferating zone, were also evaluated. […]
smiles,measurement,setting,value
CC[C@H](C)[C@@H]1NC(=O)[C@H](CCCNC(=N)N)NC(=O)[C@H](CC(=O)O)NC(=O)[C@H](CC(C)C)NC(=O)[C@H](CCCCN)NC(=O)[C@H](CC(C)C)NC(=O)CNC(=O)[C@H](Cc2ccccc2)NC(=O)[C@@H](NC(=O)CNC(=O)[C@H](CCCNC(=N)N)NC(=O)[C@H](CO)NC(=O)[C@H](CC(C)C)NC(=O)CNC(=O)[C@H](CCCNC(=N)N)NC(=O)[C@H](CCCNC(=N)N)NC(=O)[C@H](CC(N)=O)NC(=O)[C@H](C)NC(=O)CNC(=O)CCOCCOCCOCCOCCOCCOCCOCCOCCOCCOCCOCCOCCOCCOCCOCCOCCOCCOCCOCCOCCOCCOCCOCCOC)CSSC[C@@H](C(=O)O)NC(=O)CNC(=O)[C@H](CC(C)C)NC(=O)CNC(=O)[C@H](CO)NC(=O)[C@H](CCSC)NC(=O)[C@H](CO)NC(=O)CNC1=O [PEO24-GANRR-CNP22(K4R)] ({MeO(CH2CH2O)23CH2CH2CO}-GANRRGLSRGCFGLKLDRIGSMSGLGC-OH; disulfide 11-27),levels of cleaved collagen type II in conditioned media,FGFR3^ach mouse femurs,significantly increased (p<0.05)
same,cGMP levels in conditioned media,"ex-planted FGFR3^ach mouse femurs and tibias, day 8",large increase (p<0.01)
same,longitudinal growth of FGFR3^ach mouse femur ex vivo,treated every two days,increased the longitudinal growth of FGFR3^ach mouse femur compared to vehicle
same,longitudinal growth of FGFR3^ach mouse tibia ex vivo,treated every two days,increased the longitudinal growth of the tibia compared to vehicle or CNP22
